Measurements as given in patent publication US20030073654A1, “Stabilized transient gene expression” (Genespan Corporation, priority 1996, published 2003).
“Also recorded” adds a separate entry of the source.

Legend:
[1] = test system: SW480 cells; assay: Influence of polysaccharide size/type on transient expression (protocol of plate #6, polysaccharide substituted for chondroitin sulfate); assay type: cell-based, human; details: for FACTOR G / FACTOR K / FACTOR X / Total β-gal (ng) from 2 × 10^4 Cells in 14 Days: Table 13; for effectiveness in enhancing transient expression: running text of Example 10
Description: A 15 plate experiment was conducted in which the chemical compounds indicated in Table 9 were added to the culture medium of SW480 cells that were transfected in 6-well plates as detailed in Example 1. […] The chondroitin sulfate used for these experiments was as in Example 2. The most efficacious formulations, in order of their effectiveness, were those used in plates 6, 3, 13 and 14. […] The following experiments were conducted to determine the effects of polysaccharide size on their effectiveness in enhancing transient expression. […] The chondroitin sulfate used for these comparisons was obtained either from Biorelease, or was prepared by treating large (>20 kDa) chondroitin sulfate (Type A) with alkali, then acid. The size of the non-purchased preparations was determined by electrophoretic comparison with Biorelease 4 kDa chondroitin sulfate using PhastSystem gels in accord with the manufacturer's instructions (Pharmacia). The results are shown in Table 11, in which the ranges observed for X and […] in the four trials are shown in parentheses below the averages. […] Table 12 also presents the results of the Limulus amebocyte lysate (LAL) endotoxin assay, expressed as endotoxin units per ml (Eu/ml), which was performed on all media used before, during and after transfection, but before adding serum. This assay provides a quantitative measure for Gram-negative bacterial endotoxin in aqueous solutions. […] The LAL results in Table 12 are those for the post-transfection media, assayed prior to adding serum. All solutions used for these experiments were prepared in a hood using standard aseptic procedures.

[2] = test system: SW480 cells; assay: Assay for cytotoxicity (trypan blue viability, 8 day static culture); assay type: cell-based, human; details: Table 13, protocol of Example 10
Description: 1. […] However, it should be understood that various types of cells vary in their sensitivity to different chemical compounds. Thus, while SW480 cells may be used as a convenient tool for determining biocompatible concentrations of the chemical compounds, it may be necessary to empirically adjust the concentrations determined with SW480 cells in order to optimize biocompatibility with other types of cells.
A number of chemical compounds were tested in 6-well plates according to the protocol described in Example 1 to determine the relationship between their cytotoxicity and their ability to promote the uptake and expression of foreign genes in SW480 cells. Unless otherwise noted, except for the control, all plates contained 4 mM L-glutamine as well as gentamicin to retard bacterial growth.
Cytotoxicity assays were performed as follows. SW480 cells (approximately 1×10^6 cells per well) were plated in 1 ml of RPMI in 6-well culture dishes at day zero in the presence of the chemical compound whose cytotoxicity was being tested. Twenty-four hours after seeding the wells, the RPMI medium was removed, and liposomes containing foreign DNA were added to the culture in 1 ml of OPTI-MEM medium, as described in Example 1. The transfection medium also contained the chemical compounds whose cytotoxicity was being tested. Control plates were included that were identical to the test plates, except that the test compounds were not present in the culture medium. Test and control cultures were grown under “static” conditions, i.e., the plates were not shaken, rotated, or otherwise agitated. Each day for a total of 8 days, the cells from one test well and one control well were harvested and viability assessed by staining with trypan blue. […] The chondroitin sulfate used here was as in Example 2.

[3] = test system: SW480 P3 (ATCC #CCL228) human colon carcinoma cells; assay: Screening assay for enhancement of transient expression (β-galactosidase gene, liposomal transfection, 6-well plates); assay type: cell-based
Excerpt: These parameters are called the “X” factor, the “G” factor, and the “K” factor. [formula]
This factor reflects the extent to which a chemical compound added to a transfected cell enhances stabilizes transient expression for the first four days following transfection. […] For example, if expression is doubled in the presence of a compound, […]. […] X may be calculated similarly when the agent in question is a mixture of more than one chemical compound.
Cumulative protein expression, i.e., the values for “A” and “C”, is measured by summing the values measured daily in aliquots of the cultured cells.
2. G factors. G factors differ from the X factor only with respect to the time period evaluated. For calculating a G factor, the amount of protein expressed is measured from days 4-7 or days 4-14, where day 0 is the day on which the foreign DNA is added to the cells. The subscripts denote which of the two time periods provided the basis for measurement. […] As for the X factor, [formula]
3. K factor. The K factor is the ratio of the rate constants for the change in the foreign DNA expression in control transfected cells and in cells exposed to a chemical compound of the subject invention. K is determined according to the following equation: [formula]
wherein “k(DNA)” is the first order rate constant for the change in concentration of the protein expressed from the transgenic DNA, which is expressing protein as a function of time, i.e., [formula]
Values for k(DNA) are derived by using a computer program that plots the log of the foreign protein concentration against time, using the results of transgenic protein measurements that begin about 24 hours after the foreign DNA has been added to the cell. […] However, the program calculates a “best fit” line for each data set, and determines the slope of that portion of the resulting line that corresponds to the period during which protein production is changing. […] Thus, the slope is calculated during this period of decline to provide values for k(DNA) and K that can be compared for the purpose of comparing the efficacy of different chemical compounds.
SW480 P3 (ATCC #CCL228) human colon carcinoma cells (typically, 1×10^6 cells) were plated in the wells of a 6-well tissue culture plate. The number of wells plated reflected the number of days post-transfection during which the experiment would proceed. Each well contained 1 ml of complete media from a 30 ml stock solution containing: 26.4 ml RPMI tissue culture medium, 4 mM L-glutamine, 3.0 ml fetal bovine serum, and 10 μg/ml gentamicin. Cells were cultured at 37° C. in a CO2 incubator with 10% CO2 for 24 hours after being plated, during which time the cells adhered to the plates.
After the 24 hour pre-incubation step, the transfection step was carried out by removing the RPMI and adding 900 μL OPTI-MEM® (Gibco) medium containing 2 μg of VR1412 DNA (Vical, Inc., San Diego, Calif.), which expresses the bacterial β-galactosidase gene under the control of a cytomegalovirus promoter, and 8 μg of a mixture of cationic lipid (1,2-dimyristyloxyproply-3-dimethyl-hydroxyethyl ammonium bromide (e.g., “DMRIE/DOPE”) mixed in equimolar proportions with dioleoylphosphatidylethanolamine) to yield a lipid:DNA molar ratio of 0.99:1. It should be noted that typical transient transfection protocols employ 10 μg DNA per 10^6 cells, but the protocol described here uses less DNA in order to reduce toxicity to the cells. The plates were then incubated for 4 hours at 37° C.
After the 4 hour incubation step, 100 μl of heat deactivated fetal bovine serum (to stop transfection), plus 12.0 μl of 50 mg/ml gentamicin were added to each well.

[4] = test system: SW480 cells; assay: Transient expression in HPBr hollow fiber perfusion bioreactor (2-week β-galactosidase production); assay type: cell-based, human; details: relatively high rotational speed
Description: A series of four lipofection-based gene transfection experiments were conductive in a high performance hollow fiber perfusion prototype bioreactor device (hereafter referred to as the […] device) in a Genespan prototype incubator instrument. The device consists essentially of a sterile chamber through which two sets of hollow fibers are passed. Culture medium is continuously circulated through one set of fibers, while gases required (e.g., oxygen and carbon dioxide) for cell growth are passed through the second set of fibers. The fibers are composed of a porous material through which gases and nutrients can pass in one direction, while waste molecules produced by the cells growing within the chamber can pass in the other direction. Cells growing in the device may remain in suspension, or may attach to the outer surfaces of both sets of hollow fibers.
A useful feature of the HPBr device is that the cells can be agitated by rotating the chamber through which the tubes pass. […]
Daily samples (about 1.5 ml) of cells and supernatant were taken from the cell compartment of each bioreactor and an equal volume of fresh media was added to replace it. Cell counts and viabilities were determined, and […] were lysed and retained for β-galactosidase determination using the spectrophotometric method described in Example 1. […]

| Molecule | FACTOR G [1] | FACTOR K [1] | FACTOR X [1] | Total β-gal (ng) from 2 × 10^4 Cells in 14 Days [1] | Cytotoxic [2] | Cytotoxic ([2]; listed as disaccharide units derived from Type A) | effectiveness in enhancing transient expression [1] | effect on transient expression [3] | effect on transient expression when present before or during the transfection step ([3]; polyanionic carbohydrates, liposomal transfection) | cell adhesion to microcarrier [4] |
| --- | --- | --- | --- | --- | --- | --- | --- | --- | --- | --- |
| CC(=O)N[C@H]1C(O)O[C@H](CO)[C@H](OS(=O)(=O)O)[C@@H]1O[C@@H]1OC(C(=O)O)=C[C@H](O)[C@H]1O (stereo partly drawn) [Chondro ΔDi-4S] | 40.1 | 0.4 | −28.2 | 184.7 ng | Yes | cytotoxic | – | – | – | – |
| CC(=O)N[C@H]1C(O)O[C@H](COS(=O)(=O)O)[C@H](O)[C@@H]1O[C@@H]1OC(C(=O)O)=C[C@H](O)[C@H]1O (stereo partly drawn) [Chondro ΔDi-6S] | 39.0 | 1.3 | −32.7 | 932.2 ng | No | – | better results than the controls | – | – | – |
| O=C[C@@H](O)[C@@H](O)[C@H](O)[C@H](O)CO [Mannose] | 23.5 | 1.0 | −23.6 | 730.4 ng | No | – | effective in enhancing transient expression | – | – | – |
| chondroitin sulfate | – | – | – | – | – | – | – | capable of prolonging transient expression | allowed the transfection to proceed unimpeded; also recorded: enhanced transient expression | enabled the anchorage-dependent cells to adhere well to the microcarrier |
